Reference: patent US20220306695A1, “COMPSTATIN ANALOGUES AND THEIR MEDICAL USES” (priority 2019, published 2022)
Positions of bridges follow the written chain, without caps; N, C: chain ends. Non-standard residues stand in square brackets, D forms with d. Residues, ends and D or L forms follow the SMILES beside them. Trp(1-Me) = Cn1cc(C[C@H](N)C(=O)O)c2ccccc21; 2Nal = N[C@@H](Cc1ccc2ccccc2c1)C(=O)O; Sar = CNCC(=O)O

What was measured:
[1] = test system: classical complement pathway; test: In vitro haemolysis assay (inhibition of classical complement pathway); assay type: cell-based, human; conditions: Table 3; human serum, sensitized sheep red blood cells; read-out: IC50[nM], in vitro analysis of inhibition of hemolysis
Procedure, shortened: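 Serially diluted compound (9 points) was preincubated 15 min at room temperature with diluted human serum, titrated per batch to give 70-90% maximal haemolysis, in Tris/casein buffer pH 7.4 with Mg2+/Ca2+. Antibody-sensitized sheep erythrocytes were then added for 30 min at 37° C, and the reaction was stopped with EDTA. Haemolysis was read at A405, with IC50 from 4PL fit.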

[2] = Solubility test at 10 mg/mL (visual inspection and light scattering); assay type: physicochemical; conditions: for Solubility, Condition 1 Acetate pH 4: 10 mg/mL compound in 100 mM acetate pH 4; for Solubility, Condition 2 Acetate pH 5: 10 mg/mL compound in 100 mM acetate pH 5; for Solubility, Condition 3 Phosphate pH 6: 10 mg/mL compound in 100 mM phosphate pH 6; for Solubility, Condition 4 Phosphate pH 7: 10 mg/mL compound in 100 mM phosphate pH 7; for Solubility, Condition 5 Phosphate pH 7.5: 10 mg/mL compound in 100 mM phosphate pH 7.5

SMILES	IC50 [1] [nM]	Solubility, Condition 1 Acetate pH 4 [2]	Solubility, Condition 2 Acetate pH 5 [2]	Solubility, Condition 3 Phosphate pH 6 [2]	Solubility, Condition 4 Phosphate pH 7 [2]	Solubility, Condition 5 Phosphate pH 7.5 [2]
CC[C@H](C)[C@@H]1NC(=O)[C@@H](NC(=O)[C@H](Cc2ccc(O)cc2)NC(C)=O)CSSC[C@@H](C(=O)N[C@H](C(=O)NCC(=O)N[C@@H](C)C(=O)N[C@@H](CCC(=O)O)C(=O)N[C@@H](CO)C(N)=O)[C@@H](C)O)NC(=O)[C@H](CCCNC(=N)N)NC(=O)[C@H](Cc2c[nH]cn2)NC(=O)[C@H](CCC(=O)O)NC(=O)CNC(=O)[C@H](Cc2c[nH]c3ccccc23)NC(=O)[C@H](CC(=O)O)NC(=O)[C@H](CCC(N)=O)NC(=O)[C@H](Cc2ccc3ccccc3c2)NC1=O [Compound 65] (Ac-YCI[2Nal]QDWGEHRCTGAES-NH2; disulfide 2-12)	< 100	− (denotes lack of solubility at the given condition, as UV absorbance at 340 nm exceeds 0.1 AU and/or it is visibly turbid or contains particles.)	− (denotes lack of solubility at the given condition, as UV absorbance at 340 nm exceeds 0.1 AU and/or it is visibly turbid or contains particles.)	+ (denotes solubility at the given condition, as determined by UV absorbance being less than 0.1 AU at 340 nm and the sample being clear when manually inspected.)	+ (denotes solubility at the given condition, as determined by UV absorbance being less than 0.1 AU at 340 nm and the sample being clear when manually inspected.)	+ (denotes solubility at the given condition, as determined by UV absorbance being less than 0.1 AU at 340 nm and the sample being clear when manually inspected.)
CC[C@H](C)[C@@H]1NC(=O)[C@@H](NC(=O)[C@H](Cc2ccc(O)cc2)NC(C)=O)CSSC[C@@H](C(=O)N[C@H](C(=O)NCC(=O)N[C@@H](C)C(=O)N[C@@H](CCC(=O)O)C(=O)N[C@@H](CO)C(N)=O)[C@@H](C)O)NC(=O)[C@H](CCCNC(=N)N)NC(=O)[C@H](Cc2c[nH]cn2)NC(=O)[C@H](CCC(=O)O)NC(=O)CNC(=O)[C@H](Cc2c[nH]c3ccccc23)NC(=O)[C@H](CC(=O)O)NC(=O)[C@H](CCC(N)=O)NC(=O)[C@H](Cc2c[nH]c3ccccc23)NC1=O [Compound 66] (Ac-YCIWQDWGEHRCTGAES-NH2; disulfide 2-12)	< 100	− (denotes lack of solubility at the given condition, as UV absorbance at 340 nm exceeds 0.1 AU and/or it is visibly turbid or contains particles.)	− (denotes lack of solubility at the given condition, as UV absorbance at 340 nm exceeds 0.1 AU and/or it is visibly turbid or contains particles.)	+ (denotes solubility at the given condition, as determined by UV absorbance being less than 0.1 AU at 340 nm and the sample being clear when manually inspected.)	+ (denotes solubility at the given condition, as determined by UV absorbance being less than 0.1 AU at 340 nm and the sample being clear when manually inspected.)	+ (denotes solubility at the given condition, as determined by UV absorbance being less than 0.1 AU at 340 nm and the sample being clear when manually inspected.)
CC[C@H](C)[C@@H]1NC(=O)[C@@H](NC(=O)[C@H](Cc2ccccc2)NC(=O)[C@H](CCC(=O)O)NC(=O)[C@H](CO)NC(C)=O)CSSC[C@@H](C(=O)N[C@H](C(=O)NCC(=O)N[C@@H](C)C(=O)N[C@@H](CCC(=O)O)C(=O)N[C@@H](CO)C(N)=O)[C@@H](C)O)NC(=O)[C@H](CCCNC(=N)N)NC(=O)[C@H](Cc2c[nH]cn2)NC(=O)[C@H](CCC(=O)O)NC(=O)CNC(=O)[C@H](Cc2c[nH]c3ccccc23)NC(=O)[C@H](CC(=O)O)NC(=O)[C@H](CCC(N)=O)NC(=O)[C@H](Cc2cn(C)c3ccccc23)NC1=O [Compound 67] (Ac-SEFCI[Trp(1-Me)]QDWGEHRCTGAES-NH2; disulfide 4-14)	< 100	− (denotes lack of solubility at the given condition, as UV absorbance at 340 nm exceeds 0.1 AU and/or it is visibly turbid or contains particles.)	− (denotes lack of solubility at the given condition, as UV absorbance at 340 nm exceeds 0.1 AU and/or it is visibly turbid or contains particles.)	+ (denotes solubility at the given condition, as determined by UV absorbance being less than 0.1 AU at 340 nm and the sample being clear when manually inspected.)	+ (denotes solubility at the given condition, as determined by UV absorbance being less than 0.1 AU at 340 nm and the sample being clear when manually inspected.)	+ (denotes solubility at the given condition, as determined by UV absorbance being less than 0.1 AU at 340 nm and the sample being clear when manually inspected.)
CC[C@H](C)[C@@H]1NC(=O)[C@@H](NC(=O)[C@H](Cc2ccc(O)cc2)NC(C)=O)CSSC[C@@H](C(=O)N[C@H](C(=O)N[C@@H](CCC(=O)O)C(=O)N[C@@H](C)C(=O)NCC(=O)N[C@@H](CO)C(N)=O)[C@@H](C)O)NC(=O)[C@H](CCCNC(=N)N)NC(=O)[C@H](Cc2c[nH]cn2)NC(=O)[C@H](CCC(=O)O)NC(=O)CNC(=O)[C@H](Cc2c[nH]c3ccccc23)NC(=O)[C@H](CC(=O)O)NC(=O)[C@H](CCC(N)=O)NC(=O)[C@H](Cc2cn(C)c3ccccc23)NC1=O [Compound 68] (Ac-YCI[Trp(1-Me)]QDWGEHRCTEAGS-NH2; disulfide 2-12)	< 100	− (denotes lack of solubility at the given condition, as UV absorbance at 340 nm exceeds 0.1 AU and/or it is visibly turbid or contains particles.)	− (denotes lack of solubility at the given condition, as UV absorbance at 340 nm exceeds 0.1 AU and/or it is visibly turbid or contains particles.)	+ (denotes solubility at the given condition, as determined by UV absorbance being less than 0.1 AU at 340 nm and the sample being clear when manually inspected.)	+ (denotes solubility at the given condition, as determined by UV absorbance being less than 0.1 AU at 340 nm and the sample being clear when manually inspected.)	+ (denotes solubility at the given condition, as determined by UV absorbance being less than 0.1 AU at 340 nm and the sample being clear when manually inspected.)
CC[C@H](C)[C@@H]1NC(=O)[C@@H](NC(=O)[C@H](Cc2ccccc2)NC(C)=O)CSSC[C@@H](C(=O)N[C@H](C(=O)NCC(=O)N[C@@H](C)C(=O)N[C@@H](CCC(=O)O)C(=O)N[C@@H](CO)C(N)=O)[C@@H](C)O)NC(=O)[C@H](CCCNC(=N)N)NC(=O)[C@H](Cc2c[nH]cn2)NC(=O)[C@H](CCC(=O)O)NC(=O)CN(C)C(=O)[C@H](Cc2c[nH]c3ccccc23)NC(=O)[C@H](CC(=O)O)NC(=O)[C@H](CCC(N)=O)NC(=O)[C@H](Cc2cn(C)c3ccccc23)NC1=O [Compound 72, Ac-FC(1)I[1-Me-Trp]QDW[Sar]EHRC(1)TGAES-NH2] (Ac-FCI[Trp(1-Me)]QDW[Sar]EHRCTGAES-NH2; disulfide 2-12)	< 100	− (denotes lack of solubility at the given condition, as UV absorbance at 340 nm exceeds 0.1 AU and/or it is visibly turbid or contains particles.)	− (denotes lack of solubility at the given condition, as UV absorbance at 340 nm exceeds 0.1 AU and/or it is visibly turbid or contains particles.)	+ (denotes solubility at the given condition, as determined by UV absorbance being less than 0.1 AU at 340 nm and the sample being clear when manually inspected.)	+ (denotes solubility at the given condition, as determined by UV absorbance being less than 0.1 AU at 340 nm and the sample being clear when manually inspected.)	+ (denotes solubility at the given condition, as determined by UV absorbance being less than 0.1 AU at 340 nm and the sample being clear when manually inspected.)
CC[C@H](C)[C@@H]1NC(=O)[C@@H](NC(=O)[C@H](Cc2ccccc2)NC(=O)[C@H](N)Cc2ccc(O)cc2)CSSC[C@@H](C(=O)N[C@H](C(=O)NCC(=O)N[C@@H](C)C(=O)N[C@@H](CCC(=O)O)C(=O)N[C@@H](CO)C(N)=O)[C@@H](C)O)NC(=O)[C@H](CCCNC(=N)N)NC(=O)[C@H](Cc2c[nH]cn2)NC(=O)[C@H](CCC(=O)O)NC(=O)CN(C)C(=O)[C@H](Cc2c[nH]c3ccccc23)NC(=O)[C@H](CC(=O)O)NC(=O)[C@H](CCC(N)=O)NC(=O)[C@H](Cc2cn(C)c3ccccc23)NC1=O [Compound 73, H-{d}YFC(1)I[1-Me-Trp]QDW[Sar]EHRC(1)TGAES-NH2] (H-[dY]FCI[Trp(1-Me)]QDW[Sar]EHRCTGAES-NH2; disulfide 3-13)	< 100	+ (denotes solubility at the given condition, as determined by UV absorbance being less than 0.1 AU at 340 nm and the sample being clear when manually inspected.)	− (denotes lack of solubility at the given condition, as UV absorbance at 340 nm exceeds 0.1 AU and/or it is visibly turbid or contains particles.)	− (denotes lack of solubility at the given condition, as UV absorbance at 340 nm exceeds 0.1 AU and/or it is visibly turbid or contains particles.)	+ (denotes solubility at the given condition, as determined by UV absorbance being less than 0.1 AU at 340 nm and the sample being clear when manually inspected.)	+ (denotes solubility at the given condition, as determined by UV absorbance being less than 0.1 AU at 340 nm and the sample being clear when manually inspected.)
